# Source: paper PMC4160091 (Frontiers in Cellular Neuroscience, 2014)
# “Also recorded” adds a separate entry of the source.
# Assays:
# [1] = target: T1, NT binding sites, human hypothalamus (neonate/infant) (Homo sapiens, UniProt P30989); assay: Levocabastine competition with specific 125I-NT binding (competition experiments and autoradiography); conditions: all hypothalamic nuclei and areas in all cases
# T1 construct: The frozen hypothalami were then sliced as 20 μm thick coronal sections; from tissue; host or cells: postmortem human neonate/infant hypothalamus, 20 μm frozen coronal sections
# Description: After incubation, the slides were washed with ice cold buffer four times for 2 min each and rapidly dried with cold air. Labeled sections and iodinated standards (Amersham, Courtaboeuf Cedex, France) were then apposed to 3H sensitive Ultrofilm (Amersham) in Amersham exposure cassettes. After 2 weeks exposure in dark conditions at 4°C, the film was developed in Kodak D19 (Eastman Kodak, Rochester, NY, USA) for 3 min, dipped in water and fixed with Kodak rapid fixer for 10 min.
# Kinetics (IC50 and KD) analysis was computed by the method of [Parker and Waud (1971)].
# NT2 receptor = conditions: reference not given; cited from earlier work
# NT binding sites = conditions: rat, 5–9 days after the birth; ref Lépée-Lorgeoux et al., 1999; cited from earlier work
# From the text: This is similar to that reported previously for somatostatin and benzodiazepine binding sites ([Najimi et al., 1991], [2001]). […] We cannot exclude also that these hypothalamic structures have not yet completed their neuronal maturation ([Kopp et al., 1992]). Studies on older ages should reveal the ...
# T1 sequence (P30989 whole entry): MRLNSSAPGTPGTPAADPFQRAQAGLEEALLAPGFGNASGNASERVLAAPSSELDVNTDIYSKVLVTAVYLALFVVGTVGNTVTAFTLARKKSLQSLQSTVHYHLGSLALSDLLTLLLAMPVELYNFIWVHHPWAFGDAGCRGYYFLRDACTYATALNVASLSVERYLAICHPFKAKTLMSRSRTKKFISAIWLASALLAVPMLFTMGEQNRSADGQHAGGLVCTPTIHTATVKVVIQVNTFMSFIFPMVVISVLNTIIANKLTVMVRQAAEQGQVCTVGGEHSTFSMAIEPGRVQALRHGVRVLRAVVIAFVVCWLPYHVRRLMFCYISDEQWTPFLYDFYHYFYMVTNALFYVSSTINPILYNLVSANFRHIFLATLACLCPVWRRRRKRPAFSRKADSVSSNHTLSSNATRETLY
SMILES,inhibition of specific 125I-NT binding by levocabastine [1],"affinity for the NT2 receptor, in words (NT2 receptor)",number of NT binding sites after blockade of neurotransmission (NT binding sites)
C[C@@H]1CN([C@H]2CC[C@](C#N)(c3ccc(F)cc3)CC2)CC[C@]1(C(=O)O)c1ccccc1 [levocabastine],insensitivity to levocabastine; also recorded: did not inhibit specific binding of ^125I-NT,has affinity for the NT2 receptor,
COc1cccc(OC)c1-c1cc(C(=O)NC2(C(=O)O)C3CC4CC(C3)CC2C4)nn1-c1ccnc2cc(Cl)ccc12 (stereo not drawn) [SR 48692],,,increases greatly the number of NT binding sites
